Results published in patent US20080206253A1, “Method For Preventing or Treating Pain in a Mammal” (priority 2005, published 2008).
“Also recorded” adds a separate entry of the source.

Tested on: phosphorylated p38 (P-p38)
Assay: IT substance P-evoked spinal p38 phosphorylation (Western blot)
Type: in vivo, rat
Conditions: IT AS daily for five days, assessed 30 minutes after IT SP injection, compared to the MS group
Procedure: Yaksh et al., Nature 286: 155-157, 1980; Yaksh, Trends Pharmacol Sci 20: 329-337, 1999. […] Malmberg and Yaksh, Science 257: 1276-1279, 1992; Svensson et al., J Neurochem 86: 1534-1544, 2003. […] To investigate the contribution of p38α and p38β to SP-evoked hyperalgesia and p38 phosphorylation, spinal delivery of p38α and p38β AS and MS was carried out. Thermal withdrawal latencies was assessed after IT injection of SP and lumbar spinal cords collected immediately to compare the degree of spinal p38 phosphorylation at the hypothesized time of peak phosphorylation. IT injection of SP into the MS group produced an expected reduction of thermal withdrawal latency in comparison with IT saline injection into to vehicle treated animals (FIG. 7C). […] In contrast, IT SP-induced thermal hyperalgesia was attenuated in rats which had received p38β AS (FIG. 7E). […] Stripping and reprobing the western blot membranes confirmed that p38α protein expression was knocked down in p38α AS treated group (FIG. 7D) as well as p38β in the p38β AS group (FIG. 7F).
(A) Graph displaying paw withdrawal latency (PWL) plotted versus time. […] (B) Representative western blots showing levels of P-p38, total p38 and β-actin in lumbar spinal cord at different time points after IT injection of SP (30 nmol). IT-SP induced p38 phosphorylation peaks 30 minutes after SP injection. (C, E) Graph showing PWL assessed 15 and […] after bolus injection of IT saline or IT SP injection in rats treated with IT ACSF, MS (30 μg), p38α AS (30 fig) or p38β AS (20 μg) daily for five days. […] IT injection of MS or ACSF had no effect on IT SP-evoked thermal hyperalgesia. Each time point represents the mean ±SEM (n=4-5 per group). (D, F) Representative western blots showing the level of P-p38, p38α and p38β and β-actin protein expression assessed 30 minutes after IT SP injection.
Western blot. Prior to sacrifice, rats were deeply anesthetized and after decapitation the spinal cords were ejected from the vertebral column by a saline-filled syringe. The lumbar part of the spinal cord was immediately homogenized in extraction buffer (50 mM Tris buffer, pH 8.0, containing 0.5% Triton X-100, 150 mM NaCl, 1 mM EDTA, phosphatase and protease inhibitors) by sonication. […] After washing, the antibody-protein complexes were probed with appropriate secondary antibodies labeled with horseradish peroxidase for 1 hr at room temperature and detected with chemiluminescent reagents (SuperSignal, Pierce, Rockford, Ill.). […] Intensity of immunoreactive bands was quantified using ImageQuant software (Molecular Dynamics, Sunnyvale, Calif.). p38 immuno-positive bands were normalized relative to β-actin.

Substance | phosphorylation of spinal p38 following IT SP | phosphorylation of spinal p38 following IT SP (listed as p38 AS)
p38α AS: 20-nucleotide 2′-MOE phosphorothioate chimeric antisense AGGTGCTCAGGACTCCATTT, beginning at position 1081 in the rat p38α mRNA (all phosphorothioate, sugars by position and methylation of C not given here; 2'-MOE chimeric (gapmer) antisense) | did not show a reduction; also recorded: No difference in P-p38 | 
p38β AS: 20-nucleotide 2′-MOE phosphorothioate chimeric antisense GTATGTCCTCCTCGCGTGGA, beginning at position 439 in the rat p38β mRNA (all phosphorothioate, sugars by position and methylation of C not given here; 2'-MOE chimeric (gapmer) antisense) | pronounced reduction | significantly lower
